Legend:
Assay type in all cases: in vivo
Choyang oats = test: Production (content) of avenanthramides in germinated oats treated with elicitors, HPLC analysis; details: for production of avenanthramides compared to control group: Example 3, FIG. 2, SA vs control DW, ABA vs control EtOH; for production of avenanthramides over tested concentrations: Example 5, MJ 10-100 μM, ABA 10-300 μM; for synthesis amount / content of avenanthramides in oats compared to other elicitors: Examples 3 and 4, FIG. 2
Protocol: In an embodiment of the present invention, a domestic cultivated breed, Choyang oats, was used. The Choyang oat seeds were immersed for 12 hours, and then sterilized at 50° C. for 10 minutes and used. Two sheets of sterile filter paper were laid on a plant culture dish, poured with 7 ml of water, and then the sterilized Choyang oat seeds were placed and cold-treated at 4° C. for two days. The Choyang oat seeds were cultured under culture conditions of 25° C. and a photoperiod of 16L:8D.
Analysis of avenanthramides of germinated oats recovered in Example of the present invention was performed as follows. First, the obtained germinated oats were powdered using liquid nitrogen. 0.1 g of the oat powder was extracted with 1 ml of 80% methanol, and then sonicated at 50° C. for 20 minutes, extracted, and then centrifuged to obtain an oat extract from an upper layer. The extracted filtrate was dried by injecting air, and the dried product was dissolved in 200 μl of 80% methanol, and filtered using 0.2 μm PTFE (hydrophilic, ADVANTEC, Japan), and the sample was used for high-performance liquid chromatography (HPLC) analysis. A pump system used 4 solvent pumps (quaternary pumps), and a column used ZORBAX SB-18 ([…], 4.6×150 mm) from Agilent, and a mobile phase was analyzed by using gradient elution using water (A, 5% acetonitrile, 0.1% formic acid) and acetonitrile. (B, 0.1% formic acid).
After treatment with the elicitors for 3 days, the avenanthramides were harvested and HPLC was performed. The elicitors used at this time were methyl jasmonate (MJ), abscisic acid (ABA), salicylic acid (SA), ethephon (ET), methyl viologen (MV), and chitosan (CHI). DW was used as a solvent for MV, CHI, and SA, and EtOH was used as a solvent for ET, MJ, and ABA. A case of treating only DW and EtOH (0.1%), which are solvents of each elicitor, was set as a control.
Like in Example 3, 10 μM, 20 μM, 25 μM, 50 μM, 75 μM, and 100 μM of MJ and 10 μM, 20 μM, 25 μM, 50 μM, 75 μM, 100 μM, and 300 μM of ABA were treated by concentration on day 2 after germination, recovered on day 5 after germination, then frozen using liquid nitrogen, and stored at −80° C. until extraction and used. As a control, EtOH, a solvent of MJ and ABA, was treated at a concentration of 0.1%. The experimental results were shown in Tables 2 and 3 and FIGS. 4 and 5 below. […]

AsPAL = test: qRT-PCR transcriptional expression of avenanthramide biosynthetic gene AsPAL in elicitor-treated oats; details: single elicitor treatment, Example 4, FIG. 3
Protocol: (§1) Specifically, total RNA was isolated from the recovered oats, and cDNA was synthesized from the isolated total RNA using a First-Strand CDNA Synthesis Kit (Fermantas, Canada). By using the synthesized cDNA, qRT-PCR was performed on avenanthramide biosynthesis-related genes.
(§2) For the qRT-PCR amplification, a Quick Guide from BIOFACT was used, and a process of initial denaturation at 95° C. for 15 minutes and denaturation at 95° C. for 20 seconds, binding and elongation at […] for 40 seconds was repeated 40 times, and melting curve analysis was performed at 65° C. to 95° C. by 1° C. for 0.5 second.
(§3) Primers for avenanthramides biosynthesis genes and actin qRT-PCR used for the experiment were as follows.

AsHHT4 = test: qRT-PCR transcriptional expression of avenanthramide biosynthetic gene AsHHT4 in elicitor-treated oats; details: single elicitor treatment, Example 4, FIG. 3
Protocol: as §1, §2, §3

[1] = 10 μM elicitor, control EtOH 0.1%
[2] = 10 μM elicitor, treated day 2, recovered day 5 after germination
[3] = 20 μM elicitor, control EtOH 0.1%
[4] = 20 μM elicitor, treated day 2, recovered day 5 after germination
[5] = 25 μM elicitor, control EtOH 0.1%
[6] = 25 μM elicitor, treated day 2, recovered day 5 after germination
[7] = 50 μM elicitor, control EtOH 0.1%
[8] = 50 μM elicitor, treated day 2, recovered day 5 after germination
[9] = 75 μM elicitor, control EtOH 0.1%
[10] = 75 μM elicitor, treated day 2, recovered day 5 after germination
[11] = 100 μM elicitor, control EtOH 0.1%
[12] = 100 μM elicitor, treated day 2, recovered day 5 after germination
[13] = 300 μM elicitor, treated day 2, recovered day 5 after germination
[14] = Example 3, elicitor treated on day 2 after germination induction for 3 days, concentration not given
[15] = Example 3, total avenanthramides, control DW for MV, CHI, SA, control EtOH for ET, MJ, ABA

CC1=CC(=O)CC(C)(C)[C@@]1(O)/C=C/C(C)=C\C(=O)O [ABA, abscisic acid]
Compared to control (Choyang oats; [1]): 176.85%
avnA (Choyang oats; [2]): 177.8 mg/kg, FW
avnB (Choyang oats; [2]): 299.1 mg/kg, FW
avnC (Choyang oats; [2]): 197.11 mg/kg, FW
total (Choyang oats; [2]): 674.01 mg/kg, FW
Compared to control (Choyang oats; [3]): 185.33%
avnA (Choyang oats; [4]): 185.34 mg/kg, FW
avnB (Choyang oats; [4]): 319.67 mg/kg, FW
avnC (Choyang oats; [4]): 189.65 mg/kg, FW
total (Choyang oats; [4]): 694.66 mg/kg, FW
Compared to control (Choyang oats; [5]): 225.40%
avnA (Choyang oats; [6]): 202.56 mg/kg, FW
avnB (Choyang oats; [6]): 363.51 mg/kg, FW
avnC (Choyang oats; [6]): 226.14 mg/kg, FW
total (Choyang oats; [6]): 792.21 mg/kg, FW
Compared to control (Choyang oats; [7]): 240.45%
avnA (Choyang oats; [8]): 206.95 mg/kg, FW
avnB (Choyang oats; [8]): 385.73 mg/kg, FW
avnC (Choyang oats; [8]): 236.19 mg/kg, FW
total (Choyang oats; [8]): 828.87 mg/kg, FW
Compared to control (Choyang oats; [9]): 217.58%
avnA (Choyang oats; [10]): 211.62 mg/kg, FW
avnB (Choyang oats; [10]): 328.63 mg/kg, FW
avnC (Choyang oats; [10]): 232.94 mg/kg, FW
total (Choyang oats; [10]): 773.19 mg/kg, FW
Compared to control (Choyang oats; [11]): 184.80%
avnA (Choyang oats; [12]): 186.05 mg/kg, FW
avnB (Choyang oats; [12]): 309.78 mg/kg, FW
avnC (Choyang oats; [12]): 197.55 mg/kg, FW
total (Choyang oats; [12]): 693.38 mg/kg, FW
Compared to control (Choyang oats; 300 μM elicitor, control EtOH 0.1%): 189.98%
avnA (Choyang oats; [13]): 193.65 mg/kg, FW
avnB (Choyang oats; [13]): 328.02 mg/kg, FW
avnC (Choyang oats; [13]): 184.32 mg/kg, FW
total (Choyang oats; [13]): 705.99 mg/kg, FW
largest amount of avenanthramides produced (Choyang oats; ABA at a 50 μM concentration (FIG. 5)): up to 828.8 mg/kg
production of avenanthramides in oats (Choyang oats; ABA at concentrations of 20 to 300 μM): significantly increased
production of avenanthramide C (Choyang oats; Example 3): specifically increased the most
production of avenanthramides compared to control group (Choyang oats; CHI, MJ): significantly increased
avnA (Choyang oats; [14]): 193.78 mg/kg, FW
avnB (Choyang oats; [14]): 207.37 mg/kg, FW
avnC (Choyang oats; [14]): 241.72 mg/kg, FW
total (Choyang oats; [14]): 642.87 mg/kg, FW
Compared to control (Choyang oats; [15]): 176.42%
production of avenanthramides over tested concentrations (Choyang oats): increased at all concentrations
synthesis amount / content of avenanthramides in oats compared to other elicitors (Choyang oats): most increased
synthesis amount / content of avenanthramides in oats compared to other elicitors (Choyang oats; listed as abscisic acid): increased most
expression of AsPAL gene (AsPAL): increased
expression of AsHHT4 gene (AsHHT4): increased

O=P(O)(O)CCCl [ET, ethephon]
avnA (Choyang oats; [14]): 86 mg/kg, FW
avnB (Choyang oats; [14]): 145.36 mg/kg, FW
avnC (Choyang oats; [14]): 74.96 mg/kg, FW
total (Choyang oats; [14]): 306.32 mg/kg, FW
Compared to control (Choyang oats; [15]): 31.71%

CC/C=C\C[C@H]1C(=O)CC[C@@H]1CC(=O)OC [MJ, methyl jasmonate]
Compared to control (Choyang oats; [1]): 37.41%
avnA (Choyang oats; [2]): 93.22 mg/kg, FW
avnB (Choyang oats; [2]): 163.98 mg/kg, FW
avnC (Choyang oats; [2]): 77.35 mg/kg, FW
total (Choyang oats; [2]): 334.55 mg/kg, FW
Compared to control (Choyang oats; [3]): 45.03%
avnA (Choyang oats; [4]): 98.32 mg/kg, FW
avnB (Choyang oats; [4]): 168.66 mg/kg, FW
avnC (Choyang oats; [4]): 86.12 mg/kg, FW
total (Choyang oats; [4]): 353.1 mg/kg, FW
Compared to control (Choyang oats; [5]): 57.97%
avnA (Choyang oats; [6]): 105.54 mg/kg, FW
avnB (Choyang oats; [6]): 200.86 mg/kg, FW
avnC (Choyang oats; [6]): 78.2 mg/kg, FW
total (Choyang oats; [6]): 384.6 mg/kg, FW
Compared to control (Choyang oats; [7]): 99.80%
avnA (Choyang oats; [8]): 147.03 mg/kg, FW
avnB (Choyang oats; [8]): 222.81 mg/kg, FW
avnC (Choyang oats; [8]): 116.59 mg/kg, FW
total (Choyang oats; [8]): 486.43 mg/kg, FW
Compared to control (Choyang oats; [9]): 137.67%
avnA (Choyang oats; [10]): 179.81 mg/kg, FW
avnB (Choyang oats; [10]): 268.73 mg/kg, FW
avnC (Choyang oats; [10]): 130.08 mg/kg, FW
total (Choyang oats; [10]): 578.62 mg/kg, FW
Compared to control (Choyang oats; [11]): 88.13%
avnA (Choyang oats; [12]): 138.82 mg/kg, FW
avnB (Choyang oats; [12]): 218.47 mg/kg, FW
avnC (Choyang oats; [12]): 100.73 mg/kg, FW
total (Choyang oats; [12]): 458.02 mg/kg, FW
production of avenanthramides compared to control group (Choyang oats; CHI, MJ): significantly increased
avnA (Choyang oats; [14]): 190.07 mg/kg, FW
avnB (Choyang oats; [14]): 260.43 mg/kg, FW
avnC (Choyang oats; [14]): 132.39 mg/kg, FW
total (Choyang oats; [14]): 582.89 mg/kg, FW
Compared to control (Choyang oats; [15]): 150.63%
production of avenanthramides over tested concentrations (Choyang oats): increased at all concentrations
synthesis amount / content of avenanthramides in oats compared to other elicitors (Choyang oats): most increased
synthesis amount / content of avenanthramides in oats compared to other elicitors (Choyang oats; listed as methyl jasmonate): increased most
largest amount of avenanthramides produced (Choyang oats; MJ at a concentration of 75 μM (FIG. 4)): up to 578.6 mg/kg
production of avenanthramides in oats (Choyang oats; MJ at concentrations of 10 μM to 100 μM): significantly increased
expression of AsPAL gene (AsPAL): increased
expression of AsHHT4 gene (AsHHT4): increased

C[n+]1ccc(-c2cc[n+](C)cc2)cc1 [MV, methyl viologen]
avnA (Choyang oats; [14]): 95.37 mg/kg, FW
avnB (Choyang oats; [14]): 169.01 mg/kg, FW
avnC (Choyang oats; [14]): 84.14 mg/kg, FW
total (Choyang oats; [14]): 348.52 mg/kg, FW
Compared to control (Choyang oats; [15]): 3.74%

O=C(O)c1ccccc1O [SA, salicylic acid]
production of avenanthramides compared to control group (Choyang oats; CHI, MJ): slightly decreased
avnA (Choyang oats; [14]): 90.53 mg/kg, FW
avnB (Choyang oats; [14]): 149.58 mg/kg, FW
avnC (Choyang oats; [14]): 64.34 mg/kg, FW
total (Choyang oats; [14]): 304.45 mg/kg, FW
Compared to control (Choyang oats; [15]): −9.38%
